This passage reports IC50 results from patent publication US9856256B2, “Pyridino[1,2-A]pyrimidone analogue used as P13K inhibitor” (CHIA TAI TIANQING PHARMACEUTICAL GROUP CO., LTD., priority 2014, dated 2018).

One test has as its system MCF-7 cells. Nature of the test: In vitro cell activity assay (MCF-7, insulin stimulation, ELISA-One). It counts as cell-based. The conditions noted are these: Homo sapiens, MCF7, compound 2 hours in serum-free media, then 10 μg/ml insulin 30 min. As for the experimental part:
Experimental Steps and Method Comprise:
1. MCF-7 cells were seeded at 2,5000 cells per well in a 96 well tissue culture plate in a complete media containing 10%0/FBS.
3. The cells were treated with 10 μg/ml insulin in serum-free media for 30 min.
4. During waiting period, lysis solution was prepared as below:
a) Enhancer Solution needs to be taken out from the refrigerator to be thawed.
b) Concentrated lysis solution was prepared by diluting Enhancer Solution 10-fold in 5× Lysis Buffer.
c) Lysis solution was prepared by diluting concentrated lysis solution 5-fold with ddH2O.
5. Any media were removed from wells and the wells were rinsed with PBS once quickly.
6. 50 μL of freshly prepared lysis solution were added into each well, with shaking at room temperature for 10 min.
7. After confirming that all cells get detached from wells, the lysis solution together with the cell debris was transferred to 1.5 ml tubes.
8. The tubes were vortexed several times to thoroughly mix the lysis solution and cells, and then, and then the mixture was centrifuged at 12,000 g for 10 min at 4° C.;
9. The desired number of ELISA-One microplate strips was determined. Unused strips were removed from frame and returned to storage pouch and seal. Wells for use in the assay were rinsed with 200 μL ddH2O to remove preservatives prior to use.
10. 50 μL of antibody mixture solution was added into each well. (Antibody mixture solution was prepared by mixing capture antibody reagent and detection antibody reagent equally, avoid vortexing)
11. 25 μL of lysate was added into each well of the ELISA-One microplate. The microplate was covered with adhesive seal and incubated for 1 hour at room temperature on a microplate shaker.
12. Each well was washed with 150 μL 1× wash buffer 3 times. After final wash, any remaining wash buffer was removed from wells. If necessary, leave microplate in 1× Wash Buffer for up to 30 min, until substrate mixture solution has been prepared.
13. The substrate mixture solution should be prepared when used, 100 μL of substrate mixture solution was added into each well, and then the microplate was sealed with tin foil and incubated at room temperature for 10 minutes on a microplate shaker.
14. 10 μL of stop solution was added into each well, and then mixed slightly (5-10 seconds) on a microplate shaker.
15. Corresponding ELISA-One filter set was installed to read the fluorescence signal intensity.
For orientation: ELISA stands for enzyme-linked immunosorbent assay.

In a further test the target is PI3K (p110α) (Homo sapiens, UniProt P42336). Nature of the test: In vitro enzyme activity assay, PI3K (p110α) kinase, Method II (ADP-Glo assay). It counts as biochemical. More on the design: purchased Millipore 14-602-K. The conditions noted are these: read-out: PI3K (p110α) enzyme activity_IC50. How it is done: PI3K (p110α) kinase activities of the compounds in all the examples of the present invention were tested via the following two methods, respectively.
Sequence of PI3K (p110α) (P42336 whole entry): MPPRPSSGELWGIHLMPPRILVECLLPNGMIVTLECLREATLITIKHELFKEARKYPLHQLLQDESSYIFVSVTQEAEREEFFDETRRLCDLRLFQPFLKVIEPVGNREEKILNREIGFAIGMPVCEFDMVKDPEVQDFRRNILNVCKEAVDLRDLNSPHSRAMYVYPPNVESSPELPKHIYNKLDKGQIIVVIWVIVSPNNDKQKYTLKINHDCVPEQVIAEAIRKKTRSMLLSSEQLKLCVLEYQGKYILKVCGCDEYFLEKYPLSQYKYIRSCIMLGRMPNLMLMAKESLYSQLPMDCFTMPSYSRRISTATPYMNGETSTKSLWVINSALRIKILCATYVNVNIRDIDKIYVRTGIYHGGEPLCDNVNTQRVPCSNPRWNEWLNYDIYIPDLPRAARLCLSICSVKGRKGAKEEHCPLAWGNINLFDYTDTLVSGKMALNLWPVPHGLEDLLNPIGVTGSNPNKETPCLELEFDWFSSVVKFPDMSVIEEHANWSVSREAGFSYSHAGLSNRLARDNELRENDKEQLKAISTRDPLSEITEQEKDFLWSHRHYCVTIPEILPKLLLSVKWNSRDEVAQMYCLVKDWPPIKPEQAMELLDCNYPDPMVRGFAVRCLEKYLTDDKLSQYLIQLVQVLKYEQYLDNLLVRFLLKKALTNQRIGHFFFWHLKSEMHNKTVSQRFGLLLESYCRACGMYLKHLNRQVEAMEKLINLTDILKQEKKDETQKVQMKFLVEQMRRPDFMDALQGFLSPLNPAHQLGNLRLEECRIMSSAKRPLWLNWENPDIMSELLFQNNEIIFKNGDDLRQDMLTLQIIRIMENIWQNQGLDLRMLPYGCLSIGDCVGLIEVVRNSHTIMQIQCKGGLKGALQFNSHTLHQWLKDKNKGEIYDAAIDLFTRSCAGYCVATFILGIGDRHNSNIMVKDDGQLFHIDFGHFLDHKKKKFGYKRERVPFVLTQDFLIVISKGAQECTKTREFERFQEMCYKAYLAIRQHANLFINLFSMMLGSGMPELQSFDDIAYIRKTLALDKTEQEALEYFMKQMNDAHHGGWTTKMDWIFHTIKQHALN
Sequence of PI3K (p110α) (P27986 whole entry partner): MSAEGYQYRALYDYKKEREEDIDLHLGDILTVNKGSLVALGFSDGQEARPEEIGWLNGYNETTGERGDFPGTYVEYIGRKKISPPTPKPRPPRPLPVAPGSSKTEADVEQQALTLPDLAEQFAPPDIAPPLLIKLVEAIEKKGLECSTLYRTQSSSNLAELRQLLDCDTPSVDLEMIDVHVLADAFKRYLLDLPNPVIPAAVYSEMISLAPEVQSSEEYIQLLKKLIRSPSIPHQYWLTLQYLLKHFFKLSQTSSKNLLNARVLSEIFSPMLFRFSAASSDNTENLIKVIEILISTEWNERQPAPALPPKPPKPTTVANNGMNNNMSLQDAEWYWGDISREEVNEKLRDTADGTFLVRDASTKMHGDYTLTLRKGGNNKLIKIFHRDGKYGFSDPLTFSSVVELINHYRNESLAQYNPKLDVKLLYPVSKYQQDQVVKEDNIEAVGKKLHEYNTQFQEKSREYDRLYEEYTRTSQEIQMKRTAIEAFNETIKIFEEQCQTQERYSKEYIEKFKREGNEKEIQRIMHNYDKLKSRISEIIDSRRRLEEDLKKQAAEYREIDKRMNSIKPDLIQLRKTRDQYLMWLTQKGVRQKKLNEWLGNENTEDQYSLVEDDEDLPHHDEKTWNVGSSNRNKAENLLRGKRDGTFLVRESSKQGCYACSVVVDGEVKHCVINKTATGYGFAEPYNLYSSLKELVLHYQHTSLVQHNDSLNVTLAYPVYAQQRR
Dilution of the Compound:
The compound to be tested was diluted with a 3-fold concentration gradient, and 10 concentrations (from 10000 nM to 0.5 nM) were obtained in total.
50 nL of the compound was transferred to a reaction plate (PerkinElmer #6007299) and 3 μL of enzyme/substrate mixture (0.33 nM PI3Kalpha, Millipore #14-602-K/166.5 μM PIP2) was added. After 20 min incubation, 2 uL of ATP solution (100 uM) was added to initiate the reaction. After reacting for 2 hours at room temperature, 5 μL of ADP-Glo reagent was added to terminate the kinase reaction. Then the mixture was incubated at room temperature for 60 min to completely digest the remaining unreacted ATP, 10 uL of kinase detection reagent was added, and after 40 min incubation at room temperature, […] was readed on an Envision. PIP2, ATP, ADP-Glo and the kinase detection reagent were all from ADP-Glo kinase assay kit (Promega #V1792).
IC50 was calculated using standard 4-parameter fit method (Model205, XL-fit, iDBS).

Turning to `COc1ncc(-c2ccc3ncc(OCC4CCNC4)c(=O)n3c2)cc1NS(=O)(=O)c1ccc(F)cc1Cl` (centres unmarked) [Compound 77], the IC50 in the test on MCF-7 cells was > 250 nM; on PI3K (p110α), 1 to 50 nM.

On to `COc1ncc(-c2ccc3ncc(OCC4CC(F)(F)CN4)c(=O)n3c2)cc1NS(=O)(=O)c1ccc(F)cc1Cl` (centres unmarked) [Compound 83], for which the IC50 on PI3K (p110α) is 1 to 50 nM. On the same count and under the same terms, in the case of `COc1ncc(-c2ccc3ncc(OCCN4C5CCC4COC5)c(=O)n3c2)cc1NS(=O)(=O)c1ccc(F)cc1Cl` [Compound 87] it was ≤ 1 nM. For `COc1ncc(-c2ccc3ncc(OCC4CN(C)C4)c(=O)n3c2)cc1NS(=O)(=O)c1ccc(F)cc1Cl` [Compound 28], in the test with MCF-7 cells, the IC50 is ≤ 50 nM. With `COc1ncc(-c2ccc3ncc(OCCN(CCO)CCO)c(=O)n3c2)cc1NS(=O)(=O)c1ccc(F)cc1Cl` [Compound 80], the IC50 on PI3K (p110α) was ≤ 1 nM. On to `COc1ncc(-c2ccc3ncc(OC4CNC4)c(=O)n3c2)cc1NS(=O)(=O)c1ccc(F)cc1Cl` [Compound 30], for which, in the test with MCF-7 cells, the IC50 was > 250 nM. As for `COc1ncc(-c2ccc3ncc(OCCN4CCN(C)CC4)c(=O)n3c2)cc1NS(=O)(=O)c1ccc(F)cc1Cl` [Compound 68], the IC50 with MCF-7 cells was ≤ 50 nM; on PI3K (p110α) it was ≤ 1 nM. In the case of `COc1ncc(-c2ccc3ncc(OCCN4C[C@@H](C)O[C@@H](C)C4)c(=O)n3c2)cc1NS(=O)(=O)c1ccc(F)cc1Cl` [Compound 91], the IC50 with MCF-7 cells is ≤ 50 nM. In the case of `COc1ncc(-c2ccc3ncc(OCCN4CCN(C)CC4)c(=O)n3c2)cc1NS(=O)(=O)c1sc(C)nc1C` [Compound 4], the IC50 in the test with MCF-7 cells was 50 to 100 nM; on PI3K (p110α), ≤ 1 nM. As to `COc1ncc(-c2ccc3ncc(OCCCN4CCN(C)CC4)c(=O)n3c2)cc1NS(=O)(=O)c1ccc(F)cc1Cl` [Compound 72], the IC50 with MCF-7 cells was ≤ 50 nM. Turning to `COc1ncc(-c2ccc3ncc(OCCNS(C)(=O)=O)c(=O)n3c2)cc1NS(=O)(=O)c1ccc(F)cc1Cl` [Compound 23], the IC50 in the test with MCF-7 cells was 50 to 100 nM; at PI3K (p110α), ≤ 1 nM. The corresponding values for `COc1ncc(-c2ccc3ncc(OCCN4CCCC4=O)c(=O)n3c2)cc1NS(=O)(=O)c1sc(C)nc1C` [Compound 21, N-(2-Methoxy-5-(4-oxo-3-(2-(2-oxopyrrolidin-1-yl)ethoxy)-4H-pyrido[1,2-a]pyrimidin-7-yl)pyridin-3-yl)-2,4-dimethylthiazole-5-sulfonamide] are ≤ 50 nM and ≤ 1 nM.

In the case of `COc1ncc(-c2ccc3ncc(OCCN4CCS(=O)(=O)CC4)c(=O)n3c2)cc1NS(=O)(=O)c1sc(C)nc1C` [Compound 61], the IC50 on PI3K (p110α) was ≤ 1 nM.

Consider `COc1ncc(-c2ccc3ncc(OCCN4CCOCC4C(N)=O)c(=O)n3c2)cc1NS(=O)(=O)c1ccc(F)cc1Cl` (centres unmarked) [Compound 86], for which, on PI3K (p110α), the IC50 was ≤ 1 nM. Same read-out and setting: the figure for `COc1ncc(-c2ccc3ncc(OCCN(CCO)CC(F)(F)F)c(=O)n3c2)cc1NS(=O)(=O)c1ccc(F)cc1Cl` [Compound 84] is 1 to 50 nM; for `COc1ncc(-c2ccc3ncc(OCCN4CCOCC4)c(=O)n3c2)cc1S(=O)(=O)Nc1sc(C)nc1C` [Compound 58, N-(2,4-dimethylthiazol-5-yl)-2-methoxy-5-(3-(2-morpholinoethoxy)-4-oxo-4H-4H-pyrido[1,2-a]pyrimidin-7-yl)pyridine-3-sulfonamide] it is > 200 nM.

Turning to `COc1ncc(-c2ccc3ncc(OCCN4CCN(CC(F)(F)F)CC4)c(=O)n3c2)cc1NS(=O)(=O)c1ccc(F)cc1Cl` [Compound 69], the IC50 with MCF-7 cells is ≤ 50 nM. As for `COc1ncc(-c2ccc3ncc(OCCNCC(F)(F)F)c(=O)n3c2)cc1NS(=O)(=O)c1ccc(F)cc1Cl` [Compound 92], the IC50 on PI3K (p110α) is ≤ 1 nM.

`COc1ncc(-c2ccc3ncc(OCCN4CCNC(=O)C4)c(=O)n3c2)cc1NS(=O)(=O)c1ccc(F)cc1Cl` [Compound 94]: in the test with MCF-7 cells, the IC50 was > 250 nM.

Regarding `COc1ncc(-c2ccc3ncc(OCC4CCN(C)CC4)c(=O)n3c2)cc1NS(=O)(=O)c1ccc(F)cc1Cl` [Compound 71], the IC50 at PI3K (p110α) lay within 1 to 50 nM.

`COc1ncc(-c2ccc3ncc(OCC(C)N4CCOCC4)c(=O)n3c2)cc1NS(=O)(=O)c1ccc(F)cc1Cl` (centres unmarked) [Compound 66]: the IC50 with MCF-7 cells was ≤ 50 nM; on PI3K (p110α), 1 to 50 nM. As for `COc1ncc(-c2ccc3ncc(CN4CCOCC4)c(=O)n3c2)cc1NS(=O)(=O)c1sc(C)nc1C` [Compound 51, N-(2-Methoxy-5-(3-(morpholinomethyl)-4-oxo-4H-pyrido[1,2-a]pyrimidin-7-yl)pyridin-3-yl)-2,4-dimethylthiazole-5-sulfonamide], the IC50 on PI3K (p110α) is 1 to 50 nM.

In the case of `COc1ncc(-c2ccc3ncc(OCCn4ccc(C)n4)c(=O)n3c2)cc1NS(=O)(=O)c1ccc(F)cc1F` [Compound 38], the IC50 at PI3K (p110α) lay in the range of 1 to 50 nM. Turning to `COc1ncc(-c2ccc3ncc(OCCN4CCC(O)CC4)c(=O)n3c2)cc1NS(=O)(=O)c1ccc(F)cc1Cl` [Compound 79], the IC50 with MCF-7 cells is 100 to 250 nM; at PI3K (p110α) it was ≤ 1 nM. For the compound `COc1ncc(-c2ccc3ncc(OCC(C)(C)N4CCOCC4)c(=O)n3c2)cc1NS(=O)(=O)c1ccc(F)cc1Cl` [Compound 70], the IC50 in the test with MCF-7 cells was in the range of 100 to 250 nM; on PI3K (p110α), 1 to 50 nM. For `COc1ncc(-c2ccc3ncc(OCCN4CCOCC4)c(=O)n3c2)cc1NC(=O)Nc1sc(C)nc1C` [Compound 54], the IC50 at PI3K (p110α) was > 200 nM.

Regarding `COc1ncc(-c2ccc3ncc(OC(C)CN4CCOCC4)c(=O)n3c2)cc1NS(=O)(=O)c1ccc(F)cc1Cl` (centres unmarked) [Compound 67], at PI3K (p110α), the IC50 lay within 1 to 50 nM. Take `COc1ncc(-c2ccc3ncc(OCCN4CCOCC4C)c(=O)n3c2)cc1NS(=O)(=O)c1ccc(F)cc1Cl` (centres unmarked) [Compound 88]: the IC50 in the test on MCF-7 cells was 50 to 100 nM; at PI3K (p110α), ≤ 1 nM. The corresponding values for `COc1ncc(-c2ccc3ncc(OCCNC(C)=O)c(=O)n3c2)cc1NS(=O)(=O)c1ccc(F)cc1Cl` [Compound 22] are 100 to 250 nM and ≤ 1 nM.

As to `COc1ncc(-c2ccc3ncc(OCCNCCO)c(=O)n3c2)cc1NS(=O)(=O)c1ccc(F)cc1Cl` [Compound 81], the values for the IC50 in the test with MCF-7 cells and at PI3K (p110α) were > 250 nM and ≤ 1 nM, respectively. As for `COc1ncc(-c2ccc3ncc(OCC4CCCN4)c(=O)n3c2)cc1NS(=O)(=O)c1sc(C)nc1C` (centres unmarked) [Compound 33], the IC50 is > 250 nM with MCF-7 cells and ≤ 1 nM at PI3K (p110α).

With `COc1ncc(-c2ccc3ncc(OCC4(C)CNC4)c(=O)n3c2)cc1NS(=O)(=O)c1ccc(F)cc1Cl` [Compound 29], the IC50 in the test with MCF-7 cells was > 250 nM. As for `COc1ncc(-c2ccc3ncc(OCCN4CCOCC4)c(=O)n3c2)cc1NS(=O)(=O)c1c(F)cc(F)cc1Cl` [Compound 64], at PI3K (p110α), the IC50 is ≤ 1 nM.

As for `COc1ncc(-c2ccc3ncc(OC4CCN(C)CC4)c(=O)n3c2)cc1NS(=O)(=O)c1ccc(F)cc1Cl` [Compound 74], the IC50 at PI3K (p110α) was 1 to 50 nM.

`COc1ncc(-c2ccc3ncc(OCCN4CCOCC4)c(=O)n3c2)cc1NC(=O)c1sc(C)nc1C` [Compound 56, N-(2-Methoxy-5-(3-(2-morpholinoethoxy)-4-oxo-4H-pyrido[1,2-a]pyrimidin-7-yl)pyridin-3-yl)-2,4-dimethylthiazole-5-carboxamide]: the IC50 on PI3K (p110α) is > 200 nM.

With `COc1ncc(-c2ccc3ncc(OC4CN(C)C4)c(=O)n3c2)cc1NS(=O)(=O)c1ccc(F)cc1Cl` [Compound 73], on PI3K (p110α), the IC50 is 1 to 50 nM. Same read-out and setting: in the case of `COc1ncc(-c2ccc3ncc(OCCn4ccc(C(F)(F)F)n4)c(=O)n3c2)cc1NS(=O)(=O)c1ccc(F)cc1F` [Compound 39] it was 1 to 50 nM.

On to `COc1ncc(-c2ccc3ncc(OCCn4nccc4C)c(=O)n3c2)cc1NS(=O)(=O)c1ccc(F)cc1F` [Compound 40], for which, at PI3K (p110α), the IC50 lay within 1 to 50 nM.

As for `COc1ncc(-c2ccc3ncc(OCC4CCNCC4)c(=O)n3c2)cc1NS(=O)(=O)c1ccc(F)cc1Cl` [Compound 76], in the test on MCF-7 cells, the IC50 was > 250 nM. Consider `COc1ncc(-c2ccc3ncc(CN(C)C)c(=O)n3c2)cc1NS(=O)(=O)c1sc(C)nc1C` [Compound 52], for which the IC50 on PI3K (p110α) fell in the range of 1 to 50 nM. Turning to `COc1ncc(-c2ccc3ncc(OCCN4CCN(S(C)(=O)=O)CC4)c(=O)n3c2)cc1NS(=O)(=O)c1ccc(F)cc1Cl` [Compound 93], at PI3K (p110α), the IC50 is ≤ 1 nM.
